Counter-ions that a name gives are not always drawn. Like-named read-outs stand apart in the source and are kept apart here.
Tests used:
Syk = tested on: Syk; parameters: method as in S-inhibitor; details: ref S-inhibitor; cited from earlier work
[1] = tested on: Toxoplasma gondii RH-2F tachyzoites; assay: microbe, parasite or virus in culture; details: 72 h
Aurora B = tested on: Aurora B; parameters: method as in S-inhibitor catalog; details: vendor brief description; ref S-inhibitor catalog; cited from earlier work
in vitro = details: human; for viability at 72 h: Host viability (%) mean
Aurora C [2] = tested on: Aurora C; parameters: method as in S-inhibitor catalog; details: vendor brief description; ref S-inhibitor catalog; cited from earlier work
mTOR = tested on: mTOR; parameters: method as in S-inhibitor; details: ref S-inhibitor; cited from earlier work
HIV protease = target: HIV protease; parameters: method as in S-inhibitor; details: ref S-inhibitor; cited from earlier work
Aurora A = tested on: Aurora A; parameters: method as in S-inhibitor; details: ref S-inhibitor; cited from earlier work
CDK7 = tested on: CDK7; parameters: method as in S-inhibitor; details: ref S-inhibitor; cited from earlier work
Aurora C [3] = tested on: Aurora C; parameters: method as in library vendor description; details: ref library vendor description; cited from earlier work
Ret = tested on: Ret; parameters: method as in library vendor description; details: ref library vendor description; cited from earlier work
PDGFRβ = tested on: PDGFRβ; parameters: method as in library vendor description; details: ref library vendor description; cited from earlier work
VEGFR3 = tested on: VEGFR3; parameters: method as in library vendor description; details: ref library vendor description; cited from earlier work
PI3Kδ = tested on: PI3Kδ; parameters: method as in library vendor description; details: ref library vendor description; cited from earlier work
HDAC8 = tested on: HDAC8; parameters: method as in S-inhibitor; details: ref S-inhibitor; cited from earlier work
VEGFR2 = tested on: VEGFR2; parameters: method as in library vendor description; details: ref library vendor description; cited from earlier work
FGFR1 = tested on: FGFR1; parameters: method as in library vendor description; details: ref library vendor description; cited from earlier work
[4] = tested on: Toxoplasma gondii RH-2F tachyzoites; details: 5 μM, 72 h
OX1 = target: OX1; parameters: method as in S-inhibitor; details: ref S-inhibitor, cited from earlier work
p110β = tested on: p110β; parameters: method as in S-inhibitor; details: ref S-inhibitor; cited from earlier work
p110γ = tested on: p110γ; parameters: method as in S-inhibitor; details: ref S-inhibitor; cited from earlier work
[5] = read-out: Parasite inhibition (%) mean, preliminary screen of compound library, mean
[6] = read-out: Parasite inhibition (%) mean, preliminary screen, mean

SMILES: Cc1csc(-c2nnc(Nc3ccc(Oc4ncccc4-c4ccnc(N)n4)cc3)c3ccccc23)c1 [AMG 900]
- inhibition of growth at 5 µM [1, 5]: 85.9%
- IC50 (Aurora B): 4 nM
- viability at 72 h (in vitro): 33.6%
- IC50 (Aurora C [2]): 1 nM

SMILES: COc1ccc(-c2ccc3c(N4CCOC[C@@H]4C)nc(N4CCOC[C@@H]4C)nc3n2)cc1CO [AZD8055]
- IC50 (mTOR): 0.8 nM
- inhibition of growth at 5 µM [1, 6]: 45.7%

SMILES: COC(=O)N[C@H](C(=O)N[C@@H](Cc1ccccc1)[C@@H](O)CN(Cc1ccc(-c2ccccn2)cc1)NC(=O)[C@@H](NC(=O)OC)C(C)(C)C)C(C)(C)C [Atazanavir sulfate]
- inhibition of growth at 5 µM [1, 6]: 93.6%
- viability (in vitro): 90.7%
- Ki (HIV protease): 2.66 nM

SMILES: CCN1CCN(C(=O)Cc2ccc(Nc3ncc(F)c(Nc4ccc(C(=O)Nc5ccccc5Cl)cc4)n3)cc2)CC1 [Aurora A Inhibitor I]
- inhibition of growth at 5 µM [1, 6]: 60.8%
- IC50 (Aurora A): 3.4 nM

SMILES: CC(C)c1cnn2c(NCc3ccccc3)cc(NCCCCCCN)nc12 [BS-181 HCl]
- inhibition of growth at 5 µM [1, 6]: 5.7%
- IC50 (CDK7): 21 nM

SMILES: Cc1cc(CN2CCN(c3c(Br)cnc4[nH]c(-c5ccc(N6CCN(C)CC6)cc5)nc34)CC2)no1 [CCT137690]
- inhibition of growth at 5 µM [1, 5]: 86.1%
- IC50 (Aurora B): 25 nM
- viability at 72 h (in vitro): 78.6%
- IC50 (Aurora C [2]): 19 nM

SMILES: CO[C@@H](C(=O)N1Cc2n[nH]c(NC(=O)c3ccc(N4CCN(C)CC4)cc3)c2C1)c1ccccc1 [Danusertib (PHA-739358)]
- IC50 (Aurora C [3]): 61 nM
- inhibition of growth at 5 µM [1, 6]: 77.5%
- viability at 72 h (in vitro): 78.8%
- IC50 (Ret): 31 nM

SMILES: CN1CCN(c2ccc3nc(-c4c(N)c5c(F)cccc5[nH]c4=O)[nH]c3c2)CC1 [Dovitinib (TKI-258)]
- inhibition of growth at 5 µM ([1]; read-out: Parasite inhibition (%) mean): -12.9%
- IC50 (PDGFRβ): 27 nM

SMILES: CCn1cc(-c2ccnc3[nH]c(-c4cccc(CN(C)C)c4)cc23)c(-c2ccc(NC(=O)N(C)C)cc2)n1 [GSK1070916]
- inhibition of growth at 5 µM [1, 5]: 79.9%
- viability at 72 h (in vitro): 67.7%
- IC50 (Aurora C [2]): 6.5 nM

SMILES: Cc1ccccc1-n1c(Cn2cnc3c(N)ncnc32)nc2cccc(C)c2c1=O [IC-87114]
- inhibition of growth at 5 µM [1, 6]: 11.1%

SMILES: Cc1cccc(C)c1OCC(=O)N[C@@H](Cc1ccccc1)[C@@H](O)C[C@H](Cc1ccccc1)NC(=O)[C@H](C(C)C)N1CCCNC1=O [Lopinavir (ABT-378)]
- inhibition of growth at 5 µM [1, 6]: 0.9%
- Ki (HIV protease): 0.0013 nM

SMILES: COc1ccc(Cn2ccc3ccc(C(=O)NO)cc32)cc1 [PCI-34051]
- IC50 (HDAC8): 10 nM
- inhibition of growth at 5 µM [1, 6]: 5.7%

SMILES: CCN(CC)CCCCNc1ncc2cc(-c3cc(OC)cc(OC)c3)c(NC(=O)NC(C)(C)C)nc2n1 [PD173074]
- inhibition of growth at 5 µM [1, 6]: 76.8%
- IC50 (VEGFR2): 100 to 200 nM
- viability at 72 h (in vitro): 58.8%

SMILES: COc1cc(Nc2ncc(F)c(Nc3ccc4c(n3)NC(=O)C(C)(C)O4)n2)cc(OC)c1OC [R406 (free base)]
- IC50 (Syk): 41 nM

SMILES: Cc1cc(NC(=O)Nc2ccc(N(C)C)cc2)c2cc(F)cc(F)c2n1 [SB-408124, reference compound]
- inhibition of growth at 5 µM [1, 6]: -80.4%
- effect on T. gondii growth in the screen [4]: no effect on T. gondii growth
- Ki (OX1; membrane): 27 nM
- Ki (OX1; whole cell): 57 nM

SMILES: O=C(Nc1cccc(Cl)c1)Nc1ncc(CCNc2ncnc3ccsc23)s1 [SNS-314 Mesylate]
- IC50 (Aurora C [3]): 3.4 nM
- inhibition of growth at 5 µM [1, 6]: 79.4%
- viability at 72 h (in vitro): 32.9%

SMILES: CCN(CC)CCNC(=O)c1c(C)[nH]c(/C=C2\C(=O)Nc3ccc(F)cc32)c1C [Sunitinib Malate (Sutent)]
- inhibition of growth at 5 µM [1, 6]: 7.5%

SMILES: COc1cc(Nc2nc3ccccc3nc2NS(=O)(=O)c2ccc(NC(=O)c3ccc(C)c(OC)c3)cc2)cc(OC)c1 [XL765 (SAR245409)]
- IC50 (mTOR): 157 nM
- inhibition of growth at 5 µM [1, 6]: 46.6%
- IC50 (p110β): 113 nM
- IC50 (p110γ): 9 nM
